Experimental data taken from patent publication US6608061B2, “Bisaryl compound and medicament for cancer treatment comprising the same” (Kyoma Hakko Kogyo Co., Ltd., priority 1997, dated 2003).

Tests used:
[1] = target: T1, human RNR (purified R1 and R2 subunits) (Homo sapiens, UniProt P23921+P31350); assay: In vitro measurement of human RNR inhibitory activity (conversion of CDP to dCDP, HPLC); format: biochemical; settings: 100 μM CDP, 37° C., 30 minutes, read-out: RNR Inhibition (IC50)
T1 construct: made in house; host or cells: Escherichia coli BL21(λDE3)pLysS, plasmids pETR1 and pETR2 (pET3a backbone)
T1 sequence (P23921 1-792): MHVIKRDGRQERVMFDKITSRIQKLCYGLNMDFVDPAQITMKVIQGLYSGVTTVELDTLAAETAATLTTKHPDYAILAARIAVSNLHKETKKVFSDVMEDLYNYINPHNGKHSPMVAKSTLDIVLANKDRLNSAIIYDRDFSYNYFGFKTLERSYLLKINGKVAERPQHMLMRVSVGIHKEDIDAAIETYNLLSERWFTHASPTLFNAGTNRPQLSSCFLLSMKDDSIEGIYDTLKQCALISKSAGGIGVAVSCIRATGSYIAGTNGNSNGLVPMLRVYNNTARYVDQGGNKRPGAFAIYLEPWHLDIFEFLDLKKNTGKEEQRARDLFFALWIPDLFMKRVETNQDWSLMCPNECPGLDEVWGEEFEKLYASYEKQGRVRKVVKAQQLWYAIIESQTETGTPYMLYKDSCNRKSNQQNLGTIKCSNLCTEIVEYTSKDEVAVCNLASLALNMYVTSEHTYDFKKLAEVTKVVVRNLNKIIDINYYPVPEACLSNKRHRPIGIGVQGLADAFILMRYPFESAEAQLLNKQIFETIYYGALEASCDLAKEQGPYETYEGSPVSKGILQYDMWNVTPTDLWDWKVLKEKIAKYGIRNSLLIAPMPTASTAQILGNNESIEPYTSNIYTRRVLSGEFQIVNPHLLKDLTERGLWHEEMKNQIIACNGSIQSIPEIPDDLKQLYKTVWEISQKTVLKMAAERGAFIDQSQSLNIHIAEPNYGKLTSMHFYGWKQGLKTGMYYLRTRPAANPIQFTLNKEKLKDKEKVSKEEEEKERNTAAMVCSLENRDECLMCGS
T1 sequence (P31350 1-389): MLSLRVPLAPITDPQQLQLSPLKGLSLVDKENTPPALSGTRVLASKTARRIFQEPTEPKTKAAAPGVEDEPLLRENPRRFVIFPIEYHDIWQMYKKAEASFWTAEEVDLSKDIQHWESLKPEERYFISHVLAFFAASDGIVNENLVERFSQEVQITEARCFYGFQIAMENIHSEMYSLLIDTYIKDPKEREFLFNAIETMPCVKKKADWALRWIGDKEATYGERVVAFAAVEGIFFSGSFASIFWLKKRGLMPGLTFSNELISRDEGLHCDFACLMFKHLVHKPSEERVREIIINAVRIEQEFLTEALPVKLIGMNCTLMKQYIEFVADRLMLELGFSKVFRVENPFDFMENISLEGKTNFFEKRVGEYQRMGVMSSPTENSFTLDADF

HeLa S3 cells = assay: Test for growth inhibition of HeLa S3 cells; format: cell-based; settings: Homo sapiens, HeLa S3, 72 h, HeLa S3 cells, 72 hours with test compound, Cell Proliferation Kit II; read-out: Cell growth inhibition (IC50)
Protocol: Test for Growth Inhibition of Hela S3 Cells
HeLa S3 cells prepared at 1×10^4 cells/ml in MEM culture medium containing 10% fetal bovine serum and 2 mM glutamine were added to each well of a 96-well microtiter plate (0.1 ml for each well). The cells were cultured at 37° C. in a CO2 incubator for 24 hours, and then 0.05 ml of test compound appropriately diluted with the above medium was added to each well, and then the mixture was cultured at 37° C. in a CO2 incubator for 72 hours. After the culture supernatant was removed, each well was washed with 0.1 ml of PBS buffer twice, and 0.1 ml of the aforementioned medium was added to each well again.
Cell Proliferation Kit II (Boehringer Mennheim) was used for measurement of cell number in each well. After a coloring reaction reagent was added, the plate was warmed to 37° C. in a CO2 incubator for 3 hours. Then, absorbances at 490 nm and 655 nm were measured by a microplate reader, and a value (difference of absorbance) was calculated for each well by subtracting the absorbance at […] from the absorbance at 490 nm. By comparing the differences of absorbance for cells without treatment and cells treated with a test compound at a known concentration, a concentration of test compound which inhibited the cell growth by 50% was calculated, and the value obtained was determined as IC50. The values of RNR inhibitory activity obtained in Example 8, and the values of cell growth inhibitory activity obtained in Example 9 are shown in the following tables (the compound numbers used in the tables correspond to the compound numbers shown in the aforementioned tables).

[2] = test system: human ovary cancer A2780 cells; assay: Antineoplastic effect against human ovary cancer A2780 cells transplanted to nude mice; format: in vivo, nude mice BALB/cAJcl-nu; settings: Mus musculus, ip, A2780 s.c. in nude mice, read-out: Antitumor activity T/C; for response vs control in vivo at 500 mg/kg/day: 168 h, 500 mg/kg/day intraperitoneally once a day for 5 days, evaluation day 7
Source text: Antineoplastic Effect Against Human Ovary Cancer A2780 Cells
2 mm cubes (tumor fragments of 8 mm^3) of human ovary cancer A2780 cells were subcutaneously transplanted to nude mice BALB/cAJcl-nu (CLEA JAPAN) in the abdomens. When the tumor volume reached to from 50 to 300 mm^3 after the transplantation, the mice were arbitrarily divided into groups each consisting of 5 mice, and intraperitoneally administered with a drug solution once a day for 5 days. After weighing compounds, the drug solution was prepared before use by dissolving the drug in 99.5% ethanol (final concentration: 5%, analytical grade, Kanto Kagaku) or N,N-dimethylacetamide (final concentration: 5%, analytical grade, Kanto Kagaku), adding CREMOPHOR EL (a derivative of caster oil and ethylene oxide, final concentration: 10%, Sigma Chemical) to the solution, and suspending the solution in physiological saline (Otsuka Physiological Saline for Injection, Otsuka Pharmaceutical). For evaluation of the effect, a tumor volume was calculated in accordance with Equation 1, a ratio of tumor volume (V) after the administration of drug solution to tumor volume (V0) before the administration of drug solution was calculation (V/V0), and the ratio was compared with that for the untreated group to determine T/C (Equation 2). In the table, administration dose, T/C and evaluation day are shown. [formula]

| IC50 [1] [µM] | IC50 (HeLa S3 cells) [µM] | SMILES | response vs control in vivo at 500 mg/kg/day [2] [%] | response vs control in vivo at 250 mg/kg/day ([2]; 96 h, 250 mg/kg/day intraperitoneally once a day for 5 days, evaluation day 4) [%] |
| --- | --- | --- | --- | --- |
| 1.73 | 5.16 | Oc1ccc(SCCN(O)CCSc2ccc(O)cc2)cc1 [Compound 48] | 54 |  |
| 2.27 | 5.45 | Oc1ccc(SCC(O)CSc2ccc(O)cc2)cc1 [Compound 156] |  |  |
| 1.42 | 12.7 | Oc1ccc(SCSCSc2ccc(O)cc2)cc1 [Compound 158] |  |  |
| 0.69 | 6.89 | Oc1ccc(SCC=CCSc2ccc(O)cc2)cc1 [Compound 159] |  |  |
| 0.95 | 20.1 | Oc1ccc(SCC#CCSc2ccc(O)cc2)cc1 [Compound 160] |  |  |
| 1.13 | 34.2 | Oc1ccc(SCc2ccccc2CSc2ccc(O)cc2)cc1 [Compound 161] |  |  |
| 1.7 | 3.7 | Oc1ccc(SCCOCOCCSc2ccc(O)cc2)cc1 [Compound 162] |  |  |
| 2.1 | 5.17 | Oc1ccc(SCCOCCOCCSc2ccc(O)cc2)cc1 [Compound 163] |  |  |
| 3.09 | 31.2 | Oc1ccc(SCC(O)COCCOCC(O)CSc2ccc(O)cc2)cc1 (centres unmarked) [Compound 166] |  |  |
| 8.01 | 30 | Oc1ccc(SCCOCCOCCOCCSc2ccc(O)cc2)cc1 [Compound 171] |  |  |
| 2.64 | 19.5 | Oc1ccc(SCCOCCOCCOCCOCCSc2ccc(O)cc2)cc1 [Compound 172] |  |  |
| 3.63 | 12.9 | Oc1ccc(SCCOCCOCCOCCOCCOCCSc2ccc(O)cc2)cc1 [Compound 173] |  |  |
| 0.42 | 10.4 | CC1(C)OC(CSc2ccc(O)cc2)C(CSc2ccc(O)cc2)O1 (centres unmarked) [Compound 183] |  |  |
| 0.3 | 2.46 | Oc1ccc(SCCC(O)CSc2ccc(O)cc2)cc1 (centres unmarked) [Compound 184] |  |  |
| 11.9 | 56 | O=C(CSc1ccc(O)cc1)C(=O)CSc1ccc(O)cc1 [Compound 186] |  |  |
| 1.36 | 4.78 | O=C(NCCCSc1ccc(O)cc1)C1C2C=CC(C2)C1C(=O)NCCCSc1ccc(O)cc1 (centres unmarked) [Compound 191] |  |  |
| 2.85 | 4.51 | O=C(NCCCSc1ccc(O)cc1)C1(C(=O)NCCCSc2ccc(O)cc2)CCCC1 [Compound 192] |  |  |
|  | 0.36 | CC(=O)Oc1ccc(SCCN(CCSc2ccc(OC(C)=O)cc2)CC(N)=O)cc1 [Compound 193] |  | 46 |
| 0.84 | 11.7 | Oc1ccc(SCCN(CCSc2ccc(O)cc2)CCC2OCCCO2)cc1 [Compound 194] |  |  |
| 0.55 | 3.16 | CS(=O)(=O)NCCN(CCSc1ccc(O)cc1)CCSc1ccc(O)cc1 [Compound 195] |  |  |
| 1.52 | 7.08 | Oc1ccc(SCCN(CCSc2ccc(O)cc2)Cc2c[nH]cn2)cc1 [Compound 196] |  |  |
| 3.24 | 4.06 | COCCOCCOCCN(CCSc1ccc(O)cc1)CCSc1ccc(O)cc1 [Compound 197] |  |  |

| IC50 [1] [µM] | IC50 (HeLa S3 cells) [µM] | SMILES | response vs control in vivo at 500 mg/kg/day [2] [%] | response vs control in vivo at 250 mg/kg/day ([2]; 96 h, 250 mg/kg/day intraperitoneally once a day for 5 days, evaluation day 4) [%] |
| --- | --- | --- | --- | --- |
| 4.86 | 4.85 | COCCOCCN(CCSc1ccc(O)cc1)CCSc1ccc(O)cc1 [Compound 198] |  |  |
| 3.99 | 5.14 | OCCOCCN(CCSc1ccc(O)cc1)CCSc1ccc(O)cc1 [Compound 199] |  |  |
| 4.2 | 4.13 | CC1(C)OCC(CN(CCSc2ccc(O)cc2)CCSc2ccc(O)cc2)O1 (centres unmarked) [Compound 200] |  |  |
| 2.49 | 4.29 | OCC(O)CN(CCSc1ccc(O)cc1)CCSc1ccc(O)cc1 (centres unmarked) [Compound 201] |  |  |
| 1.87 | 42.6 | N=C(N)NCCN(CCSc1ccc(O)cc1)CCSc1ccc(O)cc1 [Compound 202] |  |  |
| 3.18 | 3.45 | O=C(CN(CCSc1ccc(O)cc1)CCSc1ccc(O)cc1)N1CCCCC1 [Compound 203] |  |  |
| 1.5 | 3.38 | N#CCCN(CCC#N)C(=O)CN(CCSc1ccc(O)cc1)CCSc1ccc(O)cc1 [Compound 204] |  |  |
| 1.19 | 7.32 | O=C(CN(CCSc1ccc(O)cc1)CCSc1ccc(O)cc1)NC(CO)CO [Compound 205] |  |  |
| 1.13 | 3.31 | O=C(CN(CCSc1ccc(O)cc1)CCSc1ccc(O)cc1)N1CCC[C@H]1CO [Compound 206] |  |  |
| 0.87 | 1.71 | O=C(CN(CCSc1ccc(O)cc1)CCSc1ccc(O)cc1)NCCO [Compound 207] |  |  |
| 3.46 | 5.93 | O=C(CN(CCSc1ccc(O)cc1)CCSc1ccc(O)cc1)N(CCO)CCO [Compound 208] |  |  |
| 5.91 | 2.82 | O=C(CN(CCSc1ccc(O)cc1)CCSc1ccc(O)cc1)Nc1nccs1 [Compound 210] |  |  |
| 2.06 | 180 | CC[N+](CC)(CC)CCCN(CCSc1ccc(O)cc1)CCSc1ccc(O)cc1 [Compound 213] |  |  |
| 2.69 | 7.73 | OC[C@H]1OC(N(CCSc2ccc(O)cc2)CCSc2ccc(O)cc2)[C@@H](O)[C@@H](O)[C@@H]1O (some centres unmarked) [Compound 214] |  |  |
| 3.68 | 12.7 | OC[C@H]1OC(N(CCSc2ccc(O)cc2)CCSc2ccc(O)cc2)[C@H](O)[C@@H](O)[C@@H]1O (some centres unmarked) [Compound 215] |  |  |
| 3.63 | 11.5 | OC[C@@H]1OC(N(CCSc2ccc(O)cc2)CCSc2ccc(O)cc2)[C@@H](O)[C@H](O)[C@H]1O (some centres unmarked) [Compound 216] |  |  |
| 4.97 | 23.2 | OC[C@@H]1OC(N(CCSc2ccc(O)cc2)CCSc2ccc(O)cc2)[C@H](O)[C@H](O)[C@H]1O (some centres unmarked) [Compound 218] |  |  |
| 3.51 | 25.2 | NC(=O)[C@H]1OC(N(CCSc2ccc(O)cc2)CCSc2ccc(O)cc2)[C@H](O)[C@@H](O)[C@@H]1O (some centres unmarked) [Compound 219] |  |  |
| 5.2 | 0.29 | COCC(=O)Oc1ccc(SCCN(CCSc2ccc(OC(=O)COC)cc2)CC(N)=O)cc1 [Compound 220] |  |  |
| 0.43 | 0.36 | CNCC(=O)Oc1ccc(SCCN(CCSc2ccc(OC(=O)CNC)cc2)CC(N)=O)cc1 [Compound 222] |  |  |
|  |  | CC(C)(CSc1ccc(O)cc1)C(=O)N1CCN(C(=O)C(C)(C)CSc2ccc(O)cc2)CC1 [Compound 227] | 53 |  |
